Measured values from ChEMBL document CHEMBL1134693, “Synthesis and comparative molecular field analysis (CoMFA) of symmetric and nonsymmetric cyclic sulfamide HIV-1 protease inhibitors” (J Med Chem, 2001).

biological target: T1, Human immunodeficiency virus type 1 protease (Human immunodeficiency virus 1, UniProt Q72874); test: Inhibition of recombinant HIV-1 protease measured by fluorometric assay

Structure (SMILES)	Ki
O=S1(=O)N(Cc2ccccc2)[C@H](COc2ccccc2)[C@H](O)[C@@H](O)[C@@H](COc2ccccc2)N1Cc1ccccc1	23 nM
O=C1N(Cc2ccccc2)[C@H](COc2ccccc2)[C@H](O)[C@@H](O)[C@@H](COc2ccccc2)N1Cc1ccccc1	11 nM
O=S1(=O)N(Cc2ccc(-c3cccs3)cc2)[C@@H](COc2ccccc2)[C@@H](O)[C@H](O)[C@H](COc2ccccc2)N1Cc1ccc(-c2cccs2)cc1	920 nM
O=S1(=O)N(Cc2cccc(CCO)c2)[C@@H](COc2ccccc2)[C@@H](O)[C@H](O)[C@H](COc2ccccc2)N1Cc1cccc(CCO)c1	43 nM
CC(=O)c1cccc(CN2[C@@H](COc3ccccc3)[C@@H](O)[C@H](O)[C@H](COc3ccccc3)N(Cc3cccc(C(C)=O)c3)S2(=O)=O)c1	59 nM
O=S1(=O)N(Cc2ccc(-c3cccs3)cc2)[C@@H](COc2ccccc2)[C@@H](O)[C@H](O)[C@H](COc2ccccc2)N1Cc1cccc(-c2cccs2)c1	6000 nM
O=S1(=O)N(Cc2ccc(CO)cc2)[C@@H](COc2ccccc2)[C@@H](O)[C@H](O)[C@H](COc2ccccc2)N1Cc1ccc(CO)cc1	3.1 nM
COC(Cc1cccc(CN2[C@@H](COc3ccccc3)[C@@H](O)[C@H](O)[C@H](COc3ccccc3)N(Cc3cccc(CC(OC)OC)c3)S2(=O)=O)c1)OC	540 nM
CN1[C@@H](COc2ccccc2)[C@@H](O)[C@H](O)[C@H](COc2ccccc2)N(C)S1(=O)=O	710 nM
COC(=O)c1ccc(CN2[C@@H](COc3ccccc3)[C@@H](O)[C@H](O)[C@H](COc3ccccc3)N(Cc3ccc(C(=O)OC)cc3)S2(=O)=O)cc1	84 nM

Second part, the compound after the results:

Ki	Structure (SMILES)
3.4 nM	C/C(=N\O)c1cccc(CN2[C@H](COc3ccccc3)[C@H](O)[C@@H](O)[C@@H](COc3ccccc3)N(Cc3cccc(/C(C)=N/O)c3)S2(=O)=O)c1
1800 nM	O=C(CN1[C@@H](COc2ccccc2)[C@@H](O)[C@H](O)[C@H](COc2ccccc2)N(Cc2ccc(-c3cccs3)cc2)S1(=O)=O)Nc1nccs1
140 nM	O=C(CN1[C@@H](COc2ccccc2)[C@@H](O)[C@H](O)[C@H](COc2ccccc2)N(Cc2cccc(-c3cccs3)c2)S1(=O)=O)Nc1nccs1
510 nM	O=C(CN1[C@@H](COc2ccccc2)[C@@H](O)[C@H](O)[C@H](COc2ccccc2)N(Cc2cccc(I)c2)S1(=O)=O)Nc1nccs1
1400 nM	CNC(=O)CN1[C@@H](COc2ccccc2)[C@@H](O)[C@H](O)[C@H](COc2ccccc2)N(Cc2ccccc2)S1(=O)=O
86 nM	O=S1(=O)N(Cc2ccccc2)[C@@H](COc2ccccc2)[C@@H](O)[C@H](O)[C@H](COc2ccccc2)N1Cc1cccc(-c2cccs2)c1
63 nM	O=S1(=O)N(Cc2ccccc2)[C@@H](COc2ccccc2)[C@@H](O)[C@H](O)[C@H](COc2ccccc2)N1Cc1ccc(-c2cccs2)cc1
350 nM	O=C(CN1[C@@H](COc2ccccc2)[C@@H](O)[C@H](O)[C@H](COc2ccccc2)N(Cc2ccccc2)S1(=O)=O)Nc1nccs1
510 nM	CN1[C@@H](COc2ccccc2)[C@@H](O)[C@H](O)[C@H](COc2ccccc2)N(Cc2ccccc2)S1(=O)=O
39 nM	CNC(=O)c1cccc(CN2[C@@H](COc3ccccc3)[C@@H](O)[C@H](O)[C@H](COc3ccccc3)N(Cc3cccc(C(=O)NC)c3)S2(=O)=O)c1
2200 nM	O=S1(=O)N(Cc2cccc(-c3cccs3)c2)[C@@H](COc2ccccc2)[C@@H](O)[C@H](O)[C@H](COc2ccccc2)N1Cc1cccc(-c2cccs2)c1
25000 nM	CNC(=O)CN1[C@@H](COc2ccccc2)[C@@H](O)[C@H](O)[C@H](COc2ccccc2)N(CC(=O)NC)S1(=O)=O
93 nM	O=S1(=O)N(Cc2cccc(I)c2)[C@@H](COc2ccccc2)[C@@H](O)[C@H](O)[C@H](COc2ccccc2)N1Cc1cccc(I)c1

biological target: T1, Human immunodeficiency virus type 1 protease; test: Inhibition of HIV-1 protease by fluorometric assay

Structure (SMILES)	Ki
O=S1(=O)N(Cc2ccccc2)[C@H](COc2ccccc2)[C@H](O)[C@@H](O)[C@@H](COc2ccccc2)N1Cc1ccccc1	22.9 nM
O=S1(=O)N(Cc2ccc(-c3cccs3)cc2)[C@@H](COc2ccccc2)[C@@H](O)[C@H](O)[C@H](COc2ccccc2)N1Cc1ccc(-c2cccs2)cc1	912 nM
O=S1(=O)N(Cc2cccc(CCO)c2)[C@@H](COc2ccccc2)[C@@H](O)[C@H](O)[C@H](COc2ccccc2)N1Cc1cccc(CCO)c1	42.7 nM
CC(=O)c1cccc(CN2[C@@H](COc3ccccc3)[C@@H](O)[C@H](O)[C@H](COc3ccccc3)N(Cc3cccc(C(C)=O)c3)S2(=O)=O)c1	58.9 nM
O=S1(=O)N(Cc2ccc(-c3cccs3)cc2)[C@@H](COc2ccccc2)[C@@H](O)[C@H](O)[C@H](COc2ccccc2)N1Cc1cccc(-c2cccs2)c1	6030 nM
O=S1(=O)N(Cc2ccc(CO)cc2)[C@@H](COc2ccccc2)[C@@H](O)[C@H](O)[C@H](COc2ccccc2)N1Cc1ccc(CO)cc1	3.09 nM
COC(Cc1cccc(CN2[C@@H](COc3ccccc3)[C@@H](O)[C@H](O)[C@H](COc3ccccc3)N(Cc3cccc(CC(OC)OC)c3)S2(=O)=O)c1)OC	537 nM
CN1[C@@H](COc2ccccc2)[C@@H](O)[C@H](O)[C@H](COc2ccccc2)N(C)S1(=O)=O	708 nM
COC(=O)c1ccc(CN2[C@@H](COc3ccccc3)[C@@H](O)[C@H](O)[C@H](COc3ccccc3)N(Cc3ccc(C(=O)OC)cc3)S2(=O)=O)cc1	83.2 nM

The remaining lines, values ahead:

Ki	Structure (SMILES)
3.39 nM	C/C(=N\O)c1cccc(CN2[C@H](COc3ccccc3)[C@H](O)[C@@H](O)[C@@H](COc3ccccc3)N(Cc3cccc(/C(C)=N/O)c3)S2(=O)=O)c1
1780 nM	O=C(CN1[C@@H](COc2ccccc2)[C@@H](O)[C@H](O)[C@H](COc2ccccc2)N(Cc2ccc(-c3cccs3)cc2)S1(=O)=O)Nc1nccs1
141 nM	O=C(CN1[C@@H](COc2ccccc2)[C@@H](O)[C@H](O)[C@H](COc2ccccc2)N(Cc2cccc(-c3cccs3)c2)S1(=O)=O)Nc1nccs1
513 nM	O=C(CN1[C@@H](COc2ccccc2)[C@@H](O)[C@H](O)[C@H](COc2ccccc2)N(Cc2cccc(I)c2)S1(=O)=O)Nc1nccs1
1410 nM	CNC(=O)CN1[C@@H](COc2ccccc2)[C@@H](O)[C@H](O)[C@H](COc2ccccc2)N(Cc2ccccc2)S1(=O)=O
85.1 nM	O=S1(=O)N(Cc2ccccc2)[C@@H](COc2ccccc2)[C@@H](O)[C@H](O)[C@H](COc2ccccc2)N1Cc1cccc(-c2cccs2)c1
63.1 nM	O=S1(=O)N(Cc2ccccc2)[C@@H](COc2ccccc2)[C@@H](O)[C@H](O)[C@H](COc2ccccc2)N1Cc1ccc(-c2cccs2)cc1
347 nM	O=C(CN1[C@@H](COc2ccccc2)[C@@H](O)[C@H](O)[C@H](COc2ccccc2)N(Cc2ccccc2)S1(=O)=O)Nc1nccs1
513 nM	CN1[C@@H](COc2ccccc2)[C@@H](O)[C@H](O)[C@H](COc2ccccc2)N(Cc2ccccc2)S1(=O)=O
38.9 nM	CNC(=O)c1cccc(CN2[C@@H](COc3ccccc3)[C@@H](O)[C@H](O)[C@H](COc3ccccc3)N(Cc3cccc(C(=O)NC)c3)S2(=O)=O)c1
2190 nM	O=S1(=O)N(Cc2cccc(-c3cccs3)c2)[C@@H](COc2ccccc2)[C@@H](O)[C@H](O)[C@H](COc2ccccc2)N1Cc1cccc(-c2cccs2)c1
25100 nM	CNC(=O)CN1[C@@H](COc2ccccc2)[C@@H](O)[C@H](O)[C@H](COc2ccccc2)N(CC(=O)NC)S1(=O)=O
93.3 nM	O=S1(=O)N(Cc2cccc(I)c2)[C@@H](COc2ccccc2)[C@@H](O)[C@H](O)[C@H](COc2ccccc2)N1Cc1cccc(I)c1
